Reference: patent US12264156B2, “Compounds and pharmaceutical compositions thereof for the treatment of diseases” (GALAPAGOS NV, priority 2018, dated 2025)
Like-named read-outs stand apart in the source and are kept apart here.

Tests used:
[1] = test system: LPS-induced TNFα in monocyte-derived macrophages (MdM); test: MdM assay: LPS-triggered TNFα (ELISA); assay type: cell-based, human; settings: Homo sapiens, Macrophage, 20 h
Procedure, shortened: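 Human monocyte-derived macrophages from CD14+ bead-selected buffy-coat PBMCs, used on day 10, pre-treated with compound for 1 h at 37 °C (0.2% DMSO), then stimulated with 200 ng/mL LPS. Supernatant taken after 20 h for TNFα sandwich ELISA (IL-10 at 2 h).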

SIK1 = molecular target: T1, SIK1 (Homo sapiens, UniProt P57059); test: ADP-Glo kinase assay, SIK1; assay type: biochemical; settings: ADP-Glo SIK kinase assay
T1 construct: purchased Carna Biosciences 02-131
T1 sequence (P57059 whole entry): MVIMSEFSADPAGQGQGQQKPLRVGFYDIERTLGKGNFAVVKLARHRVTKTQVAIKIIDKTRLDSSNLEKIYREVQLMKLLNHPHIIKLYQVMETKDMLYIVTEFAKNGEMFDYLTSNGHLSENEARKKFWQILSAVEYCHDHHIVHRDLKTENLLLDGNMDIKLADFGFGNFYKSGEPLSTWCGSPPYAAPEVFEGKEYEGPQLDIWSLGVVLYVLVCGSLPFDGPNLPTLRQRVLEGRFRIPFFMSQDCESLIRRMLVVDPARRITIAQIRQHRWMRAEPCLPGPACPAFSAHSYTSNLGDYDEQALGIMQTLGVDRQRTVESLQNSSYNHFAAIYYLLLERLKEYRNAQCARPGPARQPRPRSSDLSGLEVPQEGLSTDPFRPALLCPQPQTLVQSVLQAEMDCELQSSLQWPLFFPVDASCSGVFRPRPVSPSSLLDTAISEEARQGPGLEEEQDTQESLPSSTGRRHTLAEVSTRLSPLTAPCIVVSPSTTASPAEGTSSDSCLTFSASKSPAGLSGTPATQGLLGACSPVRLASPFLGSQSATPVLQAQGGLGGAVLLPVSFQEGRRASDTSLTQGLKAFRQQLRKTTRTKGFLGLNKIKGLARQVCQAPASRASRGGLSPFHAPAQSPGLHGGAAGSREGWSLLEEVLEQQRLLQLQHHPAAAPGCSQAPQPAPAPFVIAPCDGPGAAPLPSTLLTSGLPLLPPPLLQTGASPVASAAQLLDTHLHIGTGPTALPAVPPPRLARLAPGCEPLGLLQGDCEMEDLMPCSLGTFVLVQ
Procedure, shortened: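 ADP-Glo, RT throughout. Enz/substrate + ATP, 120 min; ADP-Glo reagent 40 min (ATP depletion); detection reagent 30 min; luminescence read. Neg ctrl 1% DMSO, pos ctrl 10 μM staurosporine, final concs.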

[2] = monocyte-derived macrophages, LPS 200 ng/mL, supernatant after 20 h, read-out: TNFα EC50

Row | Compound | EC50 [1, 2] [nM] | IC50 (SIK1) [nM] | EC50 ([1]; read-out: TNFα EC50 (nM)) [nM]
1 | COc1cc(-c2cnc3cc(OCC(C)(C)N)ccn23)cc(OC(F)F)c1C(=O)NC1CC1 [compound 104, 4-[7-(2-amino-2-methyl-propoxy)imidazo[1,2-a]pyridin-3-yl]-N-cyclopropyl-2-(difluoromethoxy)-6-methoxy-benzamide] | 1000 to 5000 | 100 to 500 | –
2 | COc1cc(-c2cnc3cc(OCC4CCCCN4C)ccn23)cc(OC(F)F)c1C(=O)NC1CC1 (centres unmarked) [compound 23, N-cyclopropyl-2-(difluoromethoxy)-6-methoxy-4-[7-[(1-methyl-2-piperidyl)methoxy]imidazo[1,2-a]pyridin-3-yl]benzamide] | 100 to 1000 | 100 to 500 | –
3 | COc1cc(-c2cnc3cc(OCCN4CCCCC4)ccn23)cc(OC(F)F)c1C(=O)NC1CC1 [compound 10, N-cyclopropyl-2-(difluoromethoxy)-6-methoxy-4-[7-[2-(1-piperidyl)ethoxy]imidazo [1,2-a]pyridin-3-yl]benzamide] | 0.1 to 100 | 10 to 100 | –
4 | COc1cc(-c2cnc3cc(OC(C)(C)CO)ccn23)cc(OC(F)F)c1C(=O)NC1CC1 [Cpd 209, N-cyclopropyl-2-(difluoromethoxy)-4-[7-(2-hydroxy-1,1-dimethyl-ethoxy)imidazo[1,2-a]pyridin-3-yl]-6-methoxy-benzamide] | 1000 to 5000 | > 500 | –
5 | CCOC(=O)C1(F)CCN(CCCOc2ccn3c(-c4cc(OC)c(C(=O)NC5CC5)c(OC(F)F)c4)cnc3c2)CC1 [Cpd 363, ethyl 1-[3-[3-[4-(cyclopropylcarbamoyl)-3-(difluoromethoxy)-5-methoxy-phenyl]imidazo[1,2-a]pyridin-7-yl]oxypropyl]-4-fluoro-piperidine-4-carboxylate] | 0.1 to 100 | 10 to 100 | –
6 | COc1cc(-c2cnc3cc(OCC4CN(C)C4)ccn23)cc(OC(F)F)c1C(=O)NC1CC1 [Cpd 14, N-cyclopropyl-2-(difluoromethoxy)-6-methoxy-4-[7-[(1-methylazetidin-3-yl)methoxy]imidazo[1,2-a]pyridin-3-yl]benzamide] | 100 to 1000 | 10 to 100 | –
7 | COc1cc(-c2cnc3cc(OCC(O)CN4CCOCC4)ccn23)cc(OC(F)F)c1C(=O)NC1CC1 (centres unmarked) [Cpd 330, N-cyclopropyl-2-(difluoromethoxy)-4-[7-(2-hydroxy-3-morpholino-propoxy)imidazo[1,2-a]pyridin-3-yl]-6-methoxy-benzamide] | 0.1 to 100 | 10 to 100 | –
8 | CNc1cc(-c2cnc3cc(OCCN(C)C)ccn23)cc2c1C(=O)N(CC(F)(F)F)CC2 [compound 167, 6-[7-[2-(dimethylamino)ethoxy]imidazo[1,2-a]pyridin-3-yl]-8-(methylamino)-2-(2,2,2-trifluoroethyl)-3,4-dihydroisoquinolin-1-one] | > 5000 | > 500 | –
9 | COc1cc(-c2cnc3cc(OCCCN4CCCC4)ccn23)cc(OC(F)F)c1C(=O)NC1CC1 [compound 275, N-cyclopropyl-2-(difluoromethoxy)-6-methoxy-4-[7-(3-pyrrolidin-1-ylpropoxy)imidazo[1,2-a]pyridin-3-yl]benzamide] | 100 to 1000 | 10 to 100 | –
10 | COc1cc(-c2cnc3cc(OCc4ccnn4C)ccn23)cc(OC(F)F)c1C(=O)NC1CC1 [compound 44, N-cyclopropyl-2-(difluoromethoxy)-6-methoxy-4-[7-[(2-methylpyrazol-3-yl)methoxy]imidazo[1,2-a]pyridin-3-yl] benzamide] | 100 to 1000 | 10 to 100 | –
11 | COc1cc(-c2cnc3cc(OCCCN4CCC4)ccn23)cc(OC(F)F)c1C(=O)NC1CC1 [compound 274, 4-[7-[3-(azetidin-1-yl)propoxy]imidazo[1,2-a]pyridin-3-yl]-N-cyclopropyl-2-(difluoromethoxy)-6-methoxy-benzamide] | 100 to 1000 | 0.01 to 10 | –
12 | COc1cc(-c2cnc3cc(OCCCN4CCS(=O)(=O)CC4)ccn23)cc(OC(F)F)c1C(=O)NC1CC1 [Cpd 331, N-cyclopropyl-2-(difluoromethoxy)-4-[7-[3-(1,1-dioxo-1,4-thiazinan-4-yl)propoxy]imidazo[1,2-a]pyridin-3-yl]-6-methoxy-benzamide] | 100 to 1000 | 10 to 100 | –
13 | CNCCOc1ccn2c(-c3cc(OC)c(C(=O)NC4CC4)c(OC(F)F)c3)cnc2c1 [compound 117, N-cyclopropyl-2-(difluoromethoxy)-6-methoxy-4-[7-[2-(methylamino)ethoxy]imidazo[1,2-a]pyridin-3-yl]benzamide] | 100 to 1000 | 10 to 100 | –
14 | COc1cc(-c2cnc3cc(OCCN4C5CCC4COC5)ccn23)cc(OC(F)F)c1C(=O)NC1CC1 [compound 193, N-cyclopropyl-2-(difluoromethoxy)-6-methoxy-4-[7-[2-(3-oxa-8-azabicyclo [3.2.1]octan-8-yl)ethoxy]imidazo[1,2-a]pyridin-3-yl]benzamide] | – | 10 to 100 | 100 to 1000
15 | CCN(CC)CCOc1ccn2c(-c3cc4c(c(OC)c3)C(=O)N(CC(F)(F)F)CC4)cnc2c1 [compound 128, 6-[7-[2-(diethylamino)ethoxy]imidazo[1,2-a]pyridin-3-yl]-8-methoxy-2-(2,2,2-trifluoroethyl)-3,4-dihydroisoquinolin-1-one] | 100 to 1000 | 100 to 500 | –
16 | COc1cc(-c2cnc3cc(OCC4CCO4)ccn23)cc2c1C(=O)N(CC(F)(F)F)CC2 (centres unmarked) [compound 125, 8-methoxy-6-[7-(oxetan-2-ylmethoxy)imidazo[1,2-a]pyridin-3-yl]-2-(2,2,2-trifluoroethyl)-3,4-dihydroisoquinolin-1-one] | 100 to 1000 | 100 to 500 | –
17 | COc1cc(-c2cnc3cc(OCCCN4CCCC(O)C4)ccn23)cc(OC(F)F)c1C(=O)NC1CC1 (centres unmarked) [compound 328, N-cyclopropyl-2-(difluoromethoxy)-4-[7-[3-(3-hydroxy-1-piperidyl)propoxy]imidazo [1,2-a]pyridin-3-yl]-6-methoxy-benzamide] | 0.1 to 100 | 10 to 100 | –
18 | COc1cc(-c2cnc3cc(OCCN(C)C)ccn23)cc(OC(F)F)c1C(=O)NCC(F)(F)F [compound 166, 2-(difluoromethoxy)-4-[7-[2-(dimethylamino)ethoxy]imidazo[1,2-a]pyridin-3-yl]-6-methoxy-N-(2,2,2-trifluoroethyl)benzamide] | 100 to 1000 | 100 to 500 | –
19 | COc1cc(-c2cnc3cc(OCC(O)CN4CCCCC4)ccn23)cc(OC(F)F)c1C(=O)NC1CC1 (centres unmarked) [Cpd 321, N-cyclopropyl-2-(difluoromethoxy)-4-[7-[2-hydroxy-3-(1-piperidyl)propoxy]imidazo [1,2-a]pyridin-3-yl]-6-methoxy-benzamide] | 0.1 to 100 | 10 to 100 | –
20 | COc1cc(-c2cnc3cc(OC[C@@H]4COCCO4)ccn23)cc2c1C(=O)N(CC(F)(F)F)CC2 [compound 225, 6-[7-[[(2S)-1,4-dioxan-2-yl]methoxy]imidazo[1,2-a]pyridin-3-yl]-8-methoxy-2-(2,2,2-trifluoroethyl)-3,4-dihydroisoquinolin-1-one] | 100 to 1000 | 100 to 500 | –
21 | COc1cc(-c2cnc3cc(OCCN4CCOCC4)ccn23)cc2c1C(=O)N(CC(F)(F)F)CC2 [Cpd 88, 8-methoxy-6-[7-(2-morpholinoethoxy)imidazo [1,2-a]pyridin-3-yl]-2-(2,2,2-trifluoroethyl)-3,4-dihydroisoquinolin-1-one] | – | – | 100 to 1000
